{"source": "patent US20060069132A1", "about": "“Azolecarboxamide herbicides” (priority 2004, published 2006)", "key": {"[1]": {"system": "corn (maize) cv. Pioneer 33G26", "test": "Test G safening on corn by naphthalic anhydride seed treatment, preemergence", "type": "in vivo, Zea mays", "text": "This test evaluated the safening of compounds of the invention on corn (maize; Zea mays L.) cv. ‘Pioneer 33G26’ by seed treatment with naphthalic anhydride (1,8-naphthalic anhydride). All corn seed had been first treated with fludioxonil and metaxyl applied at the manufacturer's recommended rate as per the Pioneer 33G26 label. Some of the corn seed were subsequently also treated with naphthalic anhydride as a 1% by weight seed dressing. The corn seed were planted in pots containing pasteurized Sassafras sandy loam soil, and then treatments were applied preemergence the same day. Treatments were applied by spraying the test compounds formulated in a non-phytotoxic solvent mixture, using a flat fan nozzle and a spray volume of 280 L/ha. The treatments were triply replicated and the results subsequently averaged. The pots were placed on a greenhouse bench using a complete randomized block design except for the first replicate, which was unrandomized. The plants were grown in the greenhouse and watered as needed with a dilute nutrient solution containing 200 ppm of N. Illumination was daylight supplemented by artificial sources to maintaining a photoperiod of 16 hours. The temperature was maintained at 28±2° C. during the day and 23±2° C. at night. The plant response was visually rated 25 days after treatment in comparison to untreated controls using a scale of 0 to 100, with 0 representing no effect and 100 representing complete plant death."}, "blackgrass": {"system": "blackgrass", "test": "Test F pre-/postemergence herbicide test", "type": "in vivo, Alopecurus myosuroides", "conditions": "125 g ai/ha", "text": "(§1) Seeds of plant species selected from annual blugrass (Poa annua L.), blackgrass (Alopecurus myosuroides Huds.), catchweed bedstraw (Gallium aparine L.), common chickweed (Stellaria media (L.) Vill./Cyr.), downy bromegrass (Bromus tectorum L.), green foxtail (Setaria viridis (L.) Beauv.), Italian ryegrass (Lolium multiflorum Lam.), kochia (Kochia scoparia (L.). Schrad.), lambsquarters (Chenopodium album L.), littleseed canarygrass (Phalaris minor Retz.), pigweed (Amaranthus retroflexus L.), Russian thistle (Salsola kali L. ssp. Ruthenica (Iljin) Soo), wild buckwheat (Polygonum convolvulus L.), wild mustard (Sinapis arvensis L.), wild oat (Avena fatua L.), windgrass (Apera spica-venti (L.) Beauv.), winter barley (Hordeum vulgare L.), and wheat (Triticum aestivum L.) were planted and treated preemergence with test chemicals formulated in a non-phytotoxic solvent mixture which included a surfactant.\n(§2) At the same time, plants selected from these crop and weed species were treated with postemergence applications of some of the test chemicals formulated in the same manner. Plants ranged in height from 2 to 18 cm (1- to 4-leaf stage) for postemergence treatments. Treated plants and controls were maintained in a greenhouse for 12 to 14 days, after which time all species were compared to controls and visually evaluated. Plant response ratings, summarized in Table F, are based on a scale of 0 to 100 where 0 is no effect and 100 is complete control. A dash (-) response means no test result."}, "wild mustard": {"system": "wild mustard", "test": "Test F pre-/postemergence herbicide test", "type": "in vivo, Sinapis arvensis", "conditions": "125 g ai/ha", "text": "as §1, §2"}, "kochia": {"system": "kochia", "test": "Test F pre-/postemergence herbicide test", "type": "in vivo, Kochia scoparia", "conditions": "125 g ai/ha", "text": "as §1, §2"}, "winter barley": {"system": "winter barley", "test": "Test F pre-/postemergence herbicide test", "type": "in vivo, Hordeum vulgare", "conditions": "125 g ai/ha", "text": "as §1, §2"}, "pigweed": {"system": "pigweed", "test": "Test F pre-/postemergence herbicide test", "type": "in vivo, Amaranthus retroflexus", "conditions": "125 g ai/ha", "text": "as §1, §2"}, "common chickweed": {"system": "common chickweed", "test": "Test F pre-/postemergence herbicide test", "type": "in vivo, Stellaria media", "conditions": "125 g ai/ha", "text": "as §1, §2"}, "lambsquarters": {"system": "lambsquarters", "test": "Test F pre-/postemergence herbicide test", "type": "in vivo, Chenopodium album", "conditions": "125 g ai/ha", "text": "as §1, §2"}, "littleseed canarygrass": {"system": "littleseed canarygrass", "test": "Test F pre-/postemergence herbicide test", "type": "in vivo, Phalaris minor", "conditions": "125 g ai/ha", "text": "as §1, §2"}, "Italian ryegrass": {"system": "Italian ryegrass", "test": "Test F pre-/postemergence herbicide test", "type": "in vivo, Lolium multiflorum", "conditions": "125 g ai/ha", "text": "as §1, §2"}, "wheat": {"system": "wheat", "test": "Test F pre-/postemergence herbicide test", "type": "in vivo, Triticum aestivum", "conditions": "125 g ai/ha", "text": "as §1, §2"}, "catchweed bedstraw": {"system": "catchweed bedstraw", "test": "Test F pre-/postemergence herbicide test", "type": "in vivo, Gallium aparine", "conditions": "125 g ai/ha", "text": "as §1, §2"}, "wild oat": {"system": "wild oat", "test": "Test F pre-/postemergence herbicide test", "type": "in vivo, Avena fatua", "conditions": "125 g ai/ha", "text": "as §1, §2"}}}
{"compound": "CCNC(=O)c1ccc(F)c(NC(=O)c2cc(C(C)(C)C)nn2CC)c1", "note": "[Compound 2, 3-(1,1-dimethylethyl)-1-ethyl-N-[5-[(ethylamino)carbonyl]-2-fluorophenyl]-1H-pyrazole-5-carboxamide]", "values": [{"measurement": "Response of corn, With 1% naphthalic anhydride seed treatment", "setting": "[1]; 62 g a.i./ha", "result": 50}, {"measurement": "Response of corn, Without naphthalic anhydride seed treatment", "setting": "[1]; 62 g a.i./ha", "result": 65}, {"measurement": "Response of corn, With 1% naphthalic anhydride seed treatment", "setting": "[1]; 125 g a.i./ha", "result": 55}, {"measurement": "Response of corn, Without naphthalic anhydride seed treatment", "setting": "[1]; 125 g a.i./ha", "result": 72}, {"measurement": "Response of corn, With 1% naphthalic anhydride seed treatment", "setting": "[1]; 250 g a.i./ha", "result": 68}, {"measurement": "Response of corn, Without naphthalic anhydride seed treatment", "setting": "[1]; 250 g a.i./ha", "result": 78}, {"measurement": "Response of corn, With 1% naphthalic anhydride seed treatment", "setting": "[1]; 500 g a.i./ha", "result": 72}, {"measurement": "Response of corn, Without naphthalic anhydride seed treatment", "setting": "[1]; 500 g a.i./ha", "result": 85}]}
{"compound": "CCc1nn(C(C)(C)C)cc1C(=O)Nc1cc(C(=O)N(CC)CC)ccc1F", "note": "[Compound 223]", "values": [{"measurement": "Plant response rating (0-100), Blackgrass", "setting": "blackgrass; Postemergence", "result": 60}, {"measurement": "Plant response rating (0-100), Blackgrass", "setting": "blackgrass; Preemergence", "result": 70}, {"measurement": "Plant response rating (0-100), Mustard, Wild", "setting": "wild mustard; Postemergence", "result": 65}, {"measurement": "Plant response rating (0-100), Mustard, Wild", "setting": "wild mustard; Preemergence", "result": 100}, {"measurement": "Plant response rating (0-100), Kochia", "setting": "kochia; Postemergence", "result": 75}, {"measurement": "Plant response rating (0-100), Kochia", "setting": "kochia; Preemergence", "result": 75}, {"measurement": "Plant response rating (0-100), Barley, Winter", "setting": "winter barley; Postemergence", "result": 0}, {"measurement": "Plant response rating (0-100), Barley, Winter", "setting": "winter barley; Preemergence", "result": 25}, {"measurement": "Plant response rating (0-100), Pigweed", "setting": "pigweed; Postemergence", "result": 65}, {"measurement": "Plant response rating (0-100), Pigweed", "setting": "pigweed; Preemergence", "result": 100}, {"measurement": "Plant response rating (0-100), Chickweed", "setting": "common chickweed; Postemergence", "result": 60}, {"measurement": "Plant response rating (0-100), Chickweed", "setting": "common chickweed; Preemergence", "result": 100}, {"measurement": "Plant response rating (0-100), Lambsquarters", "setting": "lambsquarters; Postemergence", "result": 65}, {"measurement": "Plant response rating (0-100), Lambsquarters", "setting": "lambsquarters; Preemergence", "result": 95}, {"measurement": "Plant response rating (0-100), Canarygrass", "setting": "littleseed canarygrass; Postemergence", "result": 40}, {"measurement": "Plant response rating (0-100), Canarygrass", "setting": "littleseed canarygrass; Preemergence", "result": 50}, {"measurement": "Plant response rating (0-100), Ryegrass, Italian", "setting": "Italian ryegrass; Postemergence", "result": 45}, {"measurement": "Plant response rating (0-100), Ryegrass, Italian", "setting": "Italian ryegrass; Preemergence", "result": 65}, {"measurement": "Plant response rating (0-100), Wheat", "setting": "wheat; Postemergence", "result": 0}, {"measurement": "Plant response rating (0-100), Wheat", "setting": "wheat; Preemergence", "result": 0}, {"measurement": "Plant response rating (0-100), Galium", "setting": "catchweed bedstraw; Postemergence", "result": 60}, {"measurement": "Plant response rating (0-100), Galium", "setting": "catchweed bedstraw; Preemergence", "result": 50}, {"measurement": "Plant response rating (0-100), Oat, Wild", "setting": "wild oat; Postemergence", "result": 35}, {"measurement": "Plant response rating (0-100), Oat, Wild", "setting": "wild oat; Preemergence", "result": 70}]}
